# Data: PMC9203742 (Nature Communications, 2022)
# “And” between values parts separate entries of the source, which are not always exact repeats. Equal values may be shown once.
# Columns and labels:
# PC12 cells [1] = experiment: Cell proliferation assay of undifferentiated PC12 cells; details: average of #1-#3
# [2] = system: HEK293 cells, vector control; experiment: Fura-2 Ca2+ imaging in HEK293 cells transfected with control vector (Vec); type: cell-based; details: single-cell values #1-#20
# [3] = system: mGlu1 construct not given; experiment: Fura-2 Ca2+ imaging in HEK293 cells, source data Suppl Fig1, left group (c0-c8); construct not given; type: cell-based, rat; details: single-cell values, cells #15-#20; left group of third block
# Description: Supplement 41467_2022_30828_MOESM6_ESM.zip/Ojima et al_source data_Suppl Fig.xlsx, sheet "Suppl Fig1" | column: Glu; NiCl2; CuCl2; ZnCl2; CdCl2; Na2PdCl2; Pd(bpy)
# mGlu1 K61H/N264H mutant = target: T1, mGlu1 K61H/N264H mutant (Rattus norvegicus, UniProt P23385, K61H/N264H); experiment: Fura-2 Ca2+ imaging in HEK293 cells expressing mGlu1 K61H/N264H; type: cell-based
# T1 construct: expressed in transfected cells; host or cells: HEK293
# T1 sequence (P23385 19-1199 K61H/N264H): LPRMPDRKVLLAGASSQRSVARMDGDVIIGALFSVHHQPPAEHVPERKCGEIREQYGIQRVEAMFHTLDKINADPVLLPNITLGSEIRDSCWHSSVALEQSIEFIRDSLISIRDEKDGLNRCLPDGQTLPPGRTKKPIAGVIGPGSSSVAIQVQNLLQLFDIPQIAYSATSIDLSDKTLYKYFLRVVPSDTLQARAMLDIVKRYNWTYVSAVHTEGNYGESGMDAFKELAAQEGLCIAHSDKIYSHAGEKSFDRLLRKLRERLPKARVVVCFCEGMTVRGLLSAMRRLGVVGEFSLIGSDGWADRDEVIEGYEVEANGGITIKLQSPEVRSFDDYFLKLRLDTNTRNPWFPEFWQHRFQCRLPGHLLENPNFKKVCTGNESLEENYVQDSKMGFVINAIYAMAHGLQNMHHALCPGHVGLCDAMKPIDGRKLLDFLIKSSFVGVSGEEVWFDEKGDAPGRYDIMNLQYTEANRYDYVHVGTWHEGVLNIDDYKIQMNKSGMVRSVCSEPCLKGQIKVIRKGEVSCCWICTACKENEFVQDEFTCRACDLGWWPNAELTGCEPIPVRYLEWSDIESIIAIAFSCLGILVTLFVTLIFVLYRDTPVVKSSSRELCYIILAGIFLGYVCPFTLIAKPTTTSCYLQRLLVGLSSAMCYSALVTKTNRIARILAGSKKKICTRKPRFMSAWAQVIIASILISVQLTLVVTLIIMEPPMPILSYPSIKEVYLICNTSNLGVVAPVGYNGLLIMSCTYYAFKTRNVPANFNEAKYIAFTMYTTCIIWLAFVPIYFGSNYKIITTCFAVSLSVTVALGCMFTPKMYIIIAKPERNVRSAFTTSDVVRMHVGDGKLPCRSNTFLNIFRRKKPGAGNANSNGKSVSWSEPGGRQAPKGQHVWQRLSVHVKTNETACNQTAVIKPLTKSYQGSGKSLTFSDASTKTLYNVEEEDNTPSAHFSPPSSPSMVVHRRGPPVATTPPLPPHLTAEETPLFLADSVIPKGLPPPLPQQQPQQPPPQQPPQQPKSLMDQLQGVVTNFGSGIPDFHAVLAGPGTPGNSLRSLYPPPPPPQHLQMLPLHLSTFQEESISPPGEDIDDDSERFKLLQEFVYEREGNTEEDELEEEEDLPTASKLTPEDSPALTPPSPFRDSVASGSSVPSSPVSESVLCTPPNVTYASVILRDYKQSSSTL
# mGlu1 A59H/A265H mutant = target: T2, mGlu1 A59H/A265H mutant (Rattus norvegicus, UniProt P23385, A265H/A59H); experiment: Fura-2 Ca2+ imaging in HEK293 cells expressing mGlu1 A59H/A265H; type: cell-based; details: single-cell values
# T2 construct: expressed in transfected cells; host or cells: HEK293
# T2 sequence (P23385 19-1199 A59H/A265H): as the sequence (P23385 19-1199 K61H/N264H) above, with A41H, H43K, H246N, A247H counted along it
# primary cortical neurons = experiment: Fura-2 Ca2+ imaging (abnormal Ca2+ response) in cultured cortical neurons
# mGlu1 P58H/N264H mutant = target: T3, mGlu1 P58H/N264H mutant (Rattus norvegicus, UniProt P23385, N264H/P58H); experiment: Fura-2 Ca2+ imaging in HEK293 cells expressing mGlu1 P58H/N264H; type: cell-based
# T3 construct: expressed in transfected cells; host or cells: HEK293
# T3 sequence (P23385 19-1199 P58H/N264H): as the sequence (P23385 19-1199 K61H/N264H) above, with P40H, H43K counted along it
# mGlu1 E60H/N264H mutant = target: T4, mGlu1 E60H/N264H mutant (Rattus norvegicus, UniProt P23385, E60H/N264H); experiment: Fura-2 Ca2+ imaging in HEK293 cells expressing mGlu1 E60H/N264H; type: cell-based; details: single-cell values #1-#20; E60H/N264H
# T4 construct: expressed in transfected cells; host or cells: HEK293
# T4 sequence (P23385 19-1199 E60H/N264H): as the sequence (P23385 19-1199 K61H/N264H) above, with E42H, H43K counted along it
# mGlu1 A59H/G266H mutant = target: T5, mGlu1 A59H/G266H mutant (Rattus norvegicus, UniProt P23385, A59H/G266H); experiment: Fura-2 Ca2+ imaging in HEK293 cells expressing mGlu1 A59H/G266H; type: cell-based; details: single-cell values
# T5 construct: expressed in transfected cells; host or cells: HEK293
# T5 sequence (P23385 19-1199 A59H/G266H): as the sequence (P23385 19-1199 K61H/N264H) above, with A41H, H43K, H246N, G248H counted along it
# PC12 cells [4] = experiment: NGF-induced neurite outgrowth in differentiated PC12 cells; type: cell-based; design: neurite outgrowth, individual values #1-#20 (Fig.4b): unit not given here; details: for neurite outgrowth, individual values #1-#20 (Fig.4b): differentiated PC12 cells
# Procedure: After incubation for 3 days, PC12 cells bearing neurites were randomly selected, and the length of the longest neurite in each cell was measured using ImageJ package Fiji.
# [5] = HEK293 cells, Fura-2, read-out: EC50, Ca2+ response (Δratio)
structure (smiles),measurement,setting,value
"O=[N+]([O-])[O-].O=[N+]([O-])[O-].[Pd+2].c1ccc(-c2ccccn2)nc1 [Pd(bpy), Pd(bpy)(NO3)2]","cell proliferation, Ave (Fig.4c)",PC12 cells [1]; Pd complex 30 µM,0.7826
same,"cell proliferation, Ave (Fig.4c)",PC12 cells [1]; Pd complex 100 µM,0.07957
same,"Ca2+ response of individual cells (source data Suppl Fig1), Vec",[2],-0.004731 and 0.3238 and -0.02602 and 0.02754 and -0.0031 and 0.006285 and -0.02257 and 0.004254 and 0.003354 and -0.004338 and -0.001023 and 0.0058 and -0.01141 and 0.05108 and 0.0005846 and 0.297 and 0.004723 and 0.01628 and 0.03037
same,"Ca2+ response of individual cells (source data, sheet Suppl Fig1)",[3],0.505 and 0.8787 and 1.066 and 0.2405 and 0.9566 and 0.7627
same,EC50,mGlu1 K61H/N264H mutant; [5],2.3 µM
same,"Ca2+ response of individual cells (source data Suppl Fig1), K61H/N264H","mGlu1 K61H/N264H mutant; single-cell values, K61H/N264H",0.2703 and 0.5297 and 0.971 and -0.1576 and 0.5357 and 0.5344 and 1.086 and 1.005 and 0.6767 and 0.2693 and 0.4514 and -0.009392 and 0.06739 and -0.01372
same,"Ca2+ response of individual cells (source data Suppl Fig1), A59H/A265H",mGlu1 A59H/A265H mutant,-0.002885 and -0.009254 and 0.08719 and 0.008869 and -0.009738 and 0.003808 and 0.004285 and 0.02012 and -0.02372 and -0.01536 and -0.009285 and -0.02246 and 0.01085 and 0.1127
same,"abnormal Ca2+ response, ave (Fig.4d)",primary cortical neurons; 1 µM Pd complex,0.03652
same,"abnormal Ca2+ response, ave (Fig.4d)",primary cortical neurons; 3 µM Pd complex,-0.0001233
same,[Ca2+]i elevation (abnormal Ca2+ response),primary cortical neurons; 10 μM,gradual [Ca^2+]i elevation was observed
same,"abnormal Ca2+ response, ave (Fig.4d)",primary cortical neurons; 10 µM Pd complex,0.1988
same,[Ca2+]i elevation (abnormal Ca2+ response),primary cortical neurons; 30 μM,more prominent
same,"abnormal Ca2+ response, ave (Fig.4d)",primary cortical neurons; 30 µM Pd complex,2.468
same,"abnormal Ca2+ response, ave (Fig.4d)",primary cortical neurons; 100 µM Pd complex,3.162
same,"abnormal Ca2+ response, ave (Fig.4d)",primary cortical neurons; 300 µM Pd complex,3.458
same,EC50,mGlu1 P58H/N264H mutant; [5],1.2 µM
same,"Ca2+ response of individual cells (source data Suppl Fig1), P58H/N264H","mGlu1 P58H/N264H mutant; single-cell values #1-#20, P58H/N264H",1.407 and 1.235 and 0.2781 and 0.4382 and 0.4216 and 0.8249 and 0.694 and 0.5635 and 0.8179 and 0.3484 and 1.211 and 0.7928 and 0.02745 and 0.7691 and 1.112 and 0.5883 and 0.4797 and 0.3836 and 0.0272 and 0.6649
same,"Ca2+ response of individual cells (source data Suppl Fig1), E60H/N264H",mGlu1 E60H/N264H mutant,-0.015 and 0.1464 and 0.05592 and 0.009469 and 0.1218 and 0.005362 and 1.129 and 0.9384 and 0.8641 and 0.6693 and 0.02784 and 0.0255 and 0.002069 and -0.0022 and -0.0079 and 0.08848 and 0.002385 and -0.01194 and -0.01146 and 0.1752
same,"Ca2+ response of individual cells (source data Suppl Fig1), A59H/G266H",mGlu1 A59H/G266H mutant,0.2879 and 0.01529 and 0.1021 and -0.0047 and 0.3807 and 0.03304 and 0.0004923 and 0.02376 and -0.0301 and -0.02225 and 0.0004846 and -0.005677 and 0.7275 and 0.6736
same,Neurite outgrowth,"PC12 cells [4]; 100 μM, 3 days, NGF-differentiated",not affected
same,"neurite outgrowth, individual values #1-#20 (Fig.4b)",PC12 cells [4]; [Pd(bpy)] 1 µM,135.681 and 134.669 and 132.267 and 127.77 and 127.752 and 123.426 and 118.782 and 113.497 and 109.51 and 107.296 and 102.296 and 95.2965 and 92.9706 and 197.35 and 182.054 and 180.267 and 162.995 and 150.48 and 140.539 and 136.598
same,"neurite outgrowth, individual values #1-#20 (Fig.4b)",PC12 cells [4]; [Pd(bpy)] 3 µM,125.971 and 116.953 and 113.154 and 109.598 and 107.841 and 88.6396 and 86.7696 and 85.5685 and 80.0833 and 79.598 and 79.4975 and 76.3259 and 73.1127 and 263.255 and 244.078 and 176.493 and 155.64 and 151.309 and 138.368 and 127.894
same,"neurite outgrowth, individual values #1-#20 (Fig.4b)",PC12 cells [4]; [Pd(bpy)] 10 µM,140.024 and 139.953 and 126.728 and 122.326 and 118.61 and 116.811 and 111.912 and 108.941 and 106.468 and 103.983 and 102.368 and 92.3553 and 91.5269 and 184.551 and 173.426 and 168.711 and 166.853 and 164.196 and 142.426 and 140.681
same,"neurite outgrowth, individual values #1-#20 (Fig.4b)",PC12 cells [4]; [Pd(bpy)] 30 µM,110.627 and 105.752 and 95.8406 and 93.1838 and 90.6274 and 88.9706 and 84.7696 and 80.5685 and 78.2548 and 76.598 and 71.4264 and 67.1127 and 62.669 and 292.527 and 200.326 and 143.51 and 135.196 and 131.456 and 117.853 and 113.811
same,"neurite outgrowth, individual values #1-#20 (Fig.4b)",PC12 cells [4]; [Pd(bpy)] 100 µM,136.698 and 130.77 and 122.681 and 121.338 and 121.125 and 116.924 and 109.267 and 109.255 and 105.042 and 102.225 and 101.456 and 94.5391 and 93.196 and 186.64 and 184.25 and 163.439 and 159.066 and 147.882 and 142.225 and 138.024
